Measurements reported in patent US20070117839A1, “Two cyclic cinnamide compound” (Eisai R&D Management Co., Ltd., priority 2005, published 2007).

test system: Aβ 42 Production; test: Quantification of Aβ peptide in culture of neurons from rat fetus brain (Aβ ELISA); assay type: cell-based; conditions: Neuron, 72 h; rat primary neuronal culture (embryonic day 18 Wistar rat cerebral cortex), cultured three days after addition of the compound, Aβx-42 ELISA of the medium; read-out: Activity for reducing Aβ 42 Production IC50
Experimental: Quantification of Aβ Peptide in Culture of Neurons from Rat Fetus Brain
(1) Rat Primary Neuronal Culture
Primary neuronal cultures were prepared from the cerebral cortex of embryonic day 18 Wistar rats (Charles River Japan, Yokohama, Japan). Specifically, the embryos were aseptically removed from pregnant rats under ether anesthesia. The brain was isolated from the embryo and immersed in an ice-cold L-15 medium (Invitrogen Corp. Cat #11415-064, Carlsbad, Calif., USA, or SIGMA L1518, for example). The cerebral cortex was collected from the isolated brain under a stereoscopic microscope. The cerebral cortex fragments collected were enzymatically treated in an enzyme solution containing 0.25% trypsin (Invitrogen Corp. Cat #15050-065, Carlsbad, Calif., USA) and 0.01% DNase (Sigma D5025, St. Louis, Mo., USA) at 37° C. for 30 minutes to disperse the cells. Here, the enzymatic reaction was stopped by adding inactivated horse serum to the solution. The enzymatically treated solution was centrifuged at 1,500 rpm for five minutes to remove the supernatant. 5 to 10 mL of a medium was added to the resulting cell mass. Neurobasal medium (Invitrogen Corp. Cat #21103-049, Carlsbad, Calif., USA) supplemented with 2% B27 supplement (Invitrogen Corp. Cat #17504-044, Carlsbad, Calif., USA), 25 μM 2-mercaptoethanol (2-ME, WAKO Cat #139-06861, Osaka, Japan), 0.5 mM L-glutamine (Invitrogen Corp. Cat #25030-081, Carlsbad, Calif., USA), and Antibiotics-Antimycotics (Invitrogen Corp. Cat #15240-062, Carlsbad, Calif., USA) was used as the medium (Neurobasal/B27/2-ME). However, the above Neurobasal medium not supplemented with 2-ME (Neurobasal/B27) was used for the assay. The cells were redispersed by mild pipetting of the cell mass to which the medium was added. The cell dispersion was filtered through a 40-μm nylon mesh (Cell Strainer, Cat #35-2340, Becton Dickinson Labware, Franklin Lakes, N.J., USA) to remove the remaining cell mass, and thus a neuronal cell suspension was obtained. The neuronal cell suspension was diluted with the medium and then plated in a volume of 100 μl/well at an initial cell density of 5×10^5 cells/cm^2 in a 96-well polystyrene culture plate pre-coated with poly-L or D-lysine (Falcon Cat #35-3075, Becton Dickinson Labware, Franklin Lakes, N.J., USA coated with poly-L-lysine using the method shown below, or BIOCOAT™ cell environments Poly-D-lysine cell ware 96-well plate, Cat #35-6461, Becton Dickinson Labware, Franklin Lakes, N.J., USA). Poly-L-lysine coating was carried out as follows. 100 μg/ml of a poly-L-lysine (SIGMA P2636, St. Louis, Mo., USA) solution was aseptically prepared with a 0.15 M borate buffer (pH 8.5). 100 μl/well of the solution was added to the 96-well polystyrene culture plate and incubated at room temperature for one or more hours or at 4° C. overnight or longer. The coated 96-well polystyrene culture plate was washed with sterile water four or more times, and then dried or rinsed with, for example, sterile PBS or medium, and used for cell plating. The plated cells were cultured in the culture plate at 37° C. in 5% CO2-95% air for one day. Then, the total amount of the medium was replaced with a fresh Neurobasal/B27/2-ME medium, and then the cells were cultured for further three days.
The drug was added to the culture plate on Day 4 of culture as follows. The total amount of the medium was removed from the wells, and 180 μl/well of Neurobasal medium not containing 2-ME and containing 2% B-27 (Neurobasal/B27) was added thereto. A solution of the test compound in dimethyl sulfoxide (hereinafter abbreviated as DMSO) was diluted with Neurobasal/B27 at 10-fold of the final concentration. 20 μl/well of the dilution was added to and sufficiently mixed with the medium. The final DMSO concentration was 1% or less. Only DMSO was added to the control group.
The cells were cultured for three days after addition of the compound, and the total amount of the medium was collected. […]

Compound | IC50
COc1cc(/C=C2\CC[C@H]3CC[C@@H](c4cc(F)c(F)c(F)c4)N3C2=O)ccc1-n1cnc(C)c1 [Example 3, (E)-(3S)-(3,4,5-trifluorophenyl)-6-[3-methoxy-4-(4-methyl-1H-imidazol-1-yl)benzylidene]-(9S)-hexahydroindolizin-5-one] | 63 nM
COc1cc(/C=C2\CC[C@@H]3C[C@H](O)C[C@@H](c4ccc(F)cc4)N3C2=O)ccc1-n1cnc(C)c1 [Example 11, (E)-(6S,8S,9aR)-6-(4-fluorophenyl)-8-hydroxy-3-[3-methoxy-4-(4-methyl-1H-imidazol-1-yl)benzylidene]octahydroquinolizin-4-one] | 97 nM
COc1cc(/C=C2\CC[C@@H]3C[C@@H](O)C[C@@H](c4cc(F)c(F)c(F)c4)N3C2=O)ccc1-n1cnc(C)c1 [Example 17, (E)-(6S,8R,9aR)-6-(3,4,5-trifluorophenyl)-8-hydroxy-3-[3-methoxy-4-(4-methyl-1H-imidazol-1-yl)benzylidene]octahydroquinolizin-4-one] | 68 nM
COc1cc(/C=C2\CC[C@H]3CCC[C@@H](c4cccc(F)c4)N3C2=O)ccc1-n1cnc(C)c1 [Example 41, (E)-(6S,9aR)-6-(3-fluorophenyl)-3-[3-methoxy-4-(4-methyl-1H-imidazol-1-yl)benzylidene]octahydroquinolizin-4-one] | 47 nM
COc1cc(/C=C2\CC[C@H]3COC[C@@H](c4cc(F)c(F)c(F)c4)N3C2=O)ccc1-n1cnc(C)c1 [Example 83, (E)-(4R,9aS)-7-[3-methoxy-4-(4-methyl-1H-imidazol-1-yl)benzylidene]-4-(3,4,5-trifluorophenyl)hexahydropyrido[2,1-c][1,4]oxazin-6-one] | 37 nM
COc1cc(/C=C2\CC[C@H]3CC[C@@H](c4ccc(Cl)cc4)N3C2=O)ccc1-n1cnc(C)c1 [Example 56, (E)-(3S,8aS)-3-(4-chlorophenyl)-6-[3-methoxy-4-(4-methyl-1H-imidazol-1-yl)benzylidene]hexahydroindolizin-5-one] | 55 nM
COc1cc(/C=C2\CC[C@H]3COC[C@@H](c4ccc(Cl)cc4)N3C2=O)ccc1-n1cnc(C)c1 [Example 96, (4R,9aS)-4-(4-chlorophenyl)-7-{1-[3-methoxy-4-(4-methyl-1H-imidazol-1-yl)phenyl]-(E)-methylidene}hexahydropyrido[2,1-c][1,4]oxazin-6-one] | 65 nM
